Test results from EP1724268A1, “COMPOUND HAVING TGF-BETA INHIBITORY ACTIVITY AND PHARMACEUTICAL COMPOSITION CONTAINING SAME” (KIRIN BEER KABUSHIKI KAISHA, priority 2004, dated 2005).
Where two headings read alike, the source gives them in different places.

Test system: TGFβ signal
Assay: TGFβ signal inhibitory activity, (SBE)4-Luc reporter in A549 cells (Test Examples 1A and 1B)
Type: cell-based, human
Settings: Homo sapiens
Method in brief: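 Compounds at 3 µM and 10 µM (some 1 µM) were added with 2 ng/ml TGFβ-1 to A549 cells stably expressing an SBE-driven luciferase, then cultured 4 hr. Chemiluminescent luciferase signal gave % inhibition versus TGFβ-alone and no-TGFβ controls.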

[1] = A549, 3 µM, compounds of Reference Examples (Test Example 1B), read-out: TGFβ inhibition rate, %
[2] = A549, 10 µM, compounds of Reference Examples (Test Example 1B), read-out: TGFβ inhibition rate, %
[3] = A549, test compound 3 µM, TGFβ-1 2 ng/ml, 4 hr, Table 1A, read-out: TGFβ inhibition rate, %
[4] = A549, test compound 3 µM, Reference Examples, Table 1B, read-out: TGFβ inhibition rate, %
[5] = A549, test compound 10 µM, Reference Examples, Table 1B, read-out: TGFβ inhibition rate, %
[6] = A549, test compound 10 µM, TGFβ-1 2 ng/ml, 4 hr, Table 1A, read-out: TGFβ inhibition rate, %
[7] = A549, read-out: TGFβ inhibition rate, %

SMILES	inhibition at 3 µM [1] [%]	inhibition at 10 µM [2] [%]	inhibition at 3 µM [4] [%]	inhibition at 10 µM [5] [%]	also measured
COc1cc2nccc(Oc3ccc(C)cc3C(O)CCCCCCCCCO)c2cc1OC (stereo not shown) [r165]	38	89			
c1ccc(-c2cc3nccc(Oc4cc5cccnc5nc4-c4ccccc4)c3s2)cc1 [Compound 72, 2-Phenyl-3-(2-phenyl-thieno[3,2-b]pyridin-7-yloxy)-[1,8]naphthyridine]					inhibition at 1 µM (A549, test compound 1 µM, TGFβ-1 2 ng/ml, 4 hr, Table 1A, read-out: TGFβ inhibition rate, %): 81%; inhibition at 3 µM [3]: 99%
CCC(=O)c1cccc(F)c1Oc1ccnc2cc(OC)c(OC)cc12 [r43]			0	66	
COc1cc2nccc(Oc3ccc4[nH]ccc4c3)c2cc1OC [r293]	65	95			
COc1cc2c(Oc3ccc(C)cc3C(=O)c3ccccc3)ccnc2cc1OCCCCn1ccnc1 [Compound r150]			97	100	
Cc1cc(Oc2ccnc3cc(C(F)(F)F)ccc23)c(-c2ccccn2)nc1C [Compound 15, 5,6-Dimethyl-3-(7-trifluoromethyl-quinolin-4-yloxy)-[2,2']bipyridine]					inhibition at 3 µM [3]: 99%; inhibition at 10 µM [6]: 100%
COc1cc2c(Oc3cc(C)c(C)nc3-c3nc(C)c(C)s3)ccnc2cc1OCC(O)CO (stereo not shown) [Compound r464]	97	100			
CCc1ccc(Oc2ccnc3ccc(O)cc23)c(-c2ncccn2)n1 [Compound 191, 4-(6-Ethyl-2-pyrimidin-2-yl-pyridin-3-yloxy)-quinolin-6-ol]					inhibition at 3 µM [3]: 99%; inhibition at 10 µM [6]: 100%
Cc1cc(Oc2ccnc3ccc(-c4ccsc4)cc23)c(-c2ccccn2)nc1C [Compound 163, 5,6-Dimethyl-3-(6-thiophen-3-yl-quinolin-4-yloxy)-[2,2']bipyridine]					inhibition at 3 µM [3]: 92%; inhibition at 10 µM [6]: 100%
COc1cc2c(Oc3cc(C)c(C)nc3-c3ccccn3)ccnc2cc1C [Compound 119, 3-(6-Methoxy-7-methyl-quinolin-4-yloxy)-5,6-dimethyl-[2,2']bipyridine]					inhibition at 3 µM [3]: 100%; inhibition at 10 µM [6]: 100%
COc1cc2nccc(Oc3cc(C)c(C)cc3/C(C)=N/OCc3ccccc3)c2cc1OC [r198]	32	80			
COc1cc2nccc(Oc3cc4ccccc4nc3C)c2cc1OCCn1ccnc1 [Compound r416, 6-(2-Imidazol-1-yl-ethoxy)-7-methoxy-4-(2-methyl-quinolin-3-yloxy)-quinoline]	92	100			
COc1cc2c(Oc3ccc(C)cc3C(=O)c3ccccc3)ccnc2cc1OCCCCl [Compound r132]			72	99	
COc1cc2nccc(Oc3ccc(C)cc3C(=O)CCC3CCCC3)c2cc1OC [Compound r56]			0	84	
Cc1sc2ncnc(Oc3cc4cccnc4nc3-c3ccccc3)c2c1C [Compound 78, 3-(5,6-Dimethyl-thieno[2,3-d]pyrimidin-4-yloxy)-2-phenyl-[1,8] naphthyridine]					inhibition at 3 µM [3]: 75%; inhibition at 10 µM [6]: 99%
COc1cc2c(Oc3cc(C)c(C)nc3-c3ccccc3)ccnc2cc1OCC(O)CO (stereo not shown) [Compound r335]	100				
COc1cc2c(Oc3cc(C)c(C)nc3-c3cccnc3)ccnc2cc1OCCCO [Compound r347]	100				
COc1cc2c(Oc3cc(C)c(C)nc3-c3ccccc3)ccnc2cc1OCC(CO)CO [Compound r336]	100				
CCOC(=O)c1cc(-c2ccc(F)cc2F)ccc1Oc1ccnc2cc(OC)c(OC)cc12 [Compound r89]			20	63	
COc1cc2nccc(Oc3ccc(O)cc3C(C)=O)c2cc1OC [r176]	32	67			
CCOC(=O)c1cc(Cl)ccc1Oc1ccnc2cc(OC)c(OC)cc12 [Compound r84]			84	100	
COc1cc2c(Oc3cc4cccnc4nc3C)ccnc2cc1OCCCl [Compound r398]	78	97			
COc1cc2nccc(Oc3cc4ccccc4cc3C(=O)Oc3ccccc3)c2cc1OC [Compound r102]			33	95	
COc1cc2c(Oc3cc4ccccc4nc3C)ccnc2cc1CCCN1CCOCC1 [Compound r412]	77	99			
CC=Cc1ccccc1Oc1ccnc2cc(OC)c(OC)cc12 [Compound r2]			13	88	
CCOC(=O)c1ccccc1C(=O)c1ccnc2cc(OC)c(OC)cc12 [Compound r163, Ethyl 2-[(6,7-dimethoxy-4-quinolyl)carbonyl]benzoate]			3	67	
COc1cc2nccc(Oc3cc(C)c(C)nc3-c3ccccn3)c2cc1OC(C)C [Compound 120, 3-(6-Isopropoxy-7-methoxy-quinolin-4-yloxy)-5,6-dimethyl-[2,2']bipyridine]					inhibition at 3 µM [3]: 94%; inhibition at 10 µM [6]: 100%

SMILES	inhibition at 3 µM [1] [%]	inhibition at 10 µM [2] [%]	inhibition at 3 µM [4] [%]	inhibition at 10 µM [5] [%]	also measured
COc1cc2nccc(Oc3cc(C)c(C)cc3-c3cccnc3)c2cc1OC [r170]	76	100			
COc1cc2nccc(Oc3ccccc3C(=O)c3ccccc3)c2cc1OC [Compound r63]					inhibition at 3 µM [7]: 57%; inhibition at 10 µM [7]: 91%
COc1cc2nccc(Oc3cc(C)c(Cl)cc3C(=O)c3ccccc3)c2cc1OC [r75]			97	100	
COc1cc2nccc(Oc3c(C(C)=O)ccc4ccccc34)c2cc1OC [Compound r41]			57	97	
COc1cc2nccc(Oc3ccccc3C(=O)OC(C)C)c2cc1OC [Compound r93]			44	88	
CCCCc1ccc(-c2nc(C)ccc2Oc2ccnc3cc(OC)c(OC)cc23)cc1 [Compound r244]	-3	63			
COc1cc2nccc(Oc3ccccc3C(=O)/C=C/c3ccccc3)c2cc1OC [r57]			10	55	
COc1cc2nccc(Oc3cc(C)c(C)nc3-c3cc(C)ccn3)c2cc1OC [Compound r273]	99	100			
COc1cc2c(Oc3cc4cccnc4nc3C)ccnc2cc1OCCN1CCOCC1 [Compound r441]	97	100			
COc1cc2nccc(Oc3ccc(C)nc3-c3ccc(C(C)C)cc3)c2cc1OC [Compound r243]	-7	62			
COc1cc2c(Oc3cc(C)c(C)nc3-c3cccc(C)n3)ccnc2cc1OCCCO [Compound r447]	94	100			
Cc1cc(Oc2ccnc3ccc(-c4cccc(N)c4)cc23)c(-c2ccccn2)nc1C [Compound 10, 3-[4-(5,6-Dimethyl-[2,2']bipyridin-3-yloxy)-quinolin-6-yl]-phenylamine]					inhibition at 3 µM [3]: 100%; inhibition at 10 µM [6]: 100%
COc1cc2c(Oc3cc(C)c(C)nc3-c3ccc(C)cn3)ccnc2cc1OCCNCCO [r469]	100				
COc1ccc(Oc2ccnc3cc(OC)c(OC)cc23)c(/C=C/c2ccccc2)c1 [Compound r7, 6,7-Dimethoxy-4-{4-methoxy-2-[(E)-2-phenyl-1-ethenyl]phenoxy}quinoline]			13	54	
CCc1ccc(Oc2ccnc3ccc(OCCOC(=O)C(C)(C)C)cc23)c(-c2ncccn2)n1 [Compound 207, 2-[4-(6-Ethyl-2-pyrimidin-2-yl-pyridin-3-yloxy)-quinolin-6-yloxy]-ethyl 2,2-dimethyl-propanate]					inhibition at 3 µM [3]: 93%
COc1cc2nccc(Oc3cc(C)c(C)nc3-c3ccccn3)c2cc1OCCO [Compound 144, 2-[4-(5,6-Dimethyl-[2,2']bipyridinyl-3-yloxy)-7-methoxy-quinolin-6-yloxy]-ethanol]					inhibition at 3 µM [3]: 93%; inhibition at 10 µM [6]: 100%
COc1cc2nccc(Oc3ccc(C)nc3-c3ccc(CO)cc3)c2cc1OC [Compound r245]	80	99			
CCOC(=O)c1cc(OC)ccc1Oc1ccnc2cc(OC)c(OC)cc12 [Compound r91]			96	100	
COc1ccc2nccc(Oc3cc4cccnc4nc3-c3ccccc3)c2n1 [Compound 128, 2-Methoxy-8-(2-phenyl-[1,8]naphthyridin-3-yloxy)-[1,5]naphthyridine]					inhibition at 3 µM [3]: 93%; inhibition at 10 µM [6]: 100%
CCC(O)c1cc(OC)ccc1Oc1ccnc2cc(OC)c(OC)cc12 (stereo not shown) [Compound r11]			28	66	
COc1cc2nccc(Oc3cc(C)c(C)cc3-c3ccccn3)c2cc1OC [Compound r169]	99	100			
Cc1cc(Oc2ccnc3cc(Br)ccc23)c(-c2ccccn2)nc1C [Compound 14, 3-(7-Bromo-quinolin-4-yloxy)-5,6-dimethyl-[2,2']bipyridine]					inhibition at 3 µM [3]: 100%; inhibition at 10 µM [6]: 100%
COc1cc2c(Oc3cc4cccnc4nc3C)ccnc2cc1OCCN1CCCCC1 [r440]	100	100			
COc1cc2nccc(Oc3cc(C)c(SC)cc3C(C)=O)c2cc1OC [Compound r186]	76	100			
COc1cc2nccc(Oc3ccc(C)nc3-c3cccc(C(N)=O)c3)c2cc1OC [Compound r233]	98	100			
COc1cc2c(Oc3cc(C)c(C)nc3-c3ccccn3)ccnc2cc1OCCO [Compound r339]	100				
